{
  "source": "patent US8796244B2",
  "about": "“Imidazopyridine derivatives as inhibitors of receptor tyrosine kinases” (Astex Therapeutics Ltd, priority 2008, dated 2014)",
  "tested_on": "parental wild-type Ba/F3 cells",
  "assay": "Ba/F3 (WT) cell proliferation assay (Alamar Blue)",
  "type": "cell-based",
  "settings": "Mus musculus; for IC50: BaF3, 72 hours, Alamar Blue, read-out: BaF3 WT prolif",
  "key": {"[1]": {"settings": "BaF3, read-out: BaF3 WT prolif, % inhibition"}},
  "data": [
    {"smiles": "Cc1cc(Cl)nnc1-c1ccn2c(-c3cccc(NC(=O)NCC(F)(F)F)c3)cnc2c1", "note": "[Example 136, 1-{3-[7-(6-Chloro-4-methyl-pyridazin-3-yl)-imidazol[1,2-a]pyridin-3-yl]-phenyl}-3-(2,2,2-trifluoro-ethyl)-urea]", "values": [
      {"measurement": "IC50", "value": 0.44, "unit": "µM"}
    ]},
    {"smiles": "COc1cnc(Cl)nc1-c1ccn2c(-c3cccc(NC(=O)NCC(F)(F)F)c3)cnc2c1", "note": "[Example 139, 1-{3-[7-(2-Chloro-5-methoxy-pyrimidin-4-yl)-imidazo[1,2-a]pyridin-3-yl]-phenyl}-3-(2,2,2-trifluoro-ethyl)-urea]", "values": [
      {"measurement": "IC50", "value": 3.6, "unit": "µM"}
    ]},
    {"smiles": "COc1cncnc1-c1ccn2c(-c3cccc(NC(=O)NCC(F)(F)F)c3)cnc2c1", "note": "[Example 140, 1-{3-[7-(5-Methoxy-pyrimidin-4-yl)-imidazo[1,2-a]pyridin-3-yl]-phenyl}-3-(2,2 ,2-trifluoro-ethyl)-urea]", "values": [
      {"measurement": "inhibition at 10 µM", "setting": "[1]", "value": 7.1, "unit": "%"}
    ]},
    {"smiles": "Cc1cnnc(-c2ccn3c(-c4cccc(NC(=O)NCC(F)(F)F)c4)cnc3c2)n1", "note": "[Example 142, 1-{3-[7-(5-Methyl-[1,2,4]triazin-3-yl)-imidazo[1,2-a]pyridin-3-yl]-phenyl}-3-(2,2,2-trifluoro-ethyl)-urea]", "values": [
      {"measurement": "IC50", "value": 1.1, "unit": "µM"}
    ]},
    {"smiles": "CC(=O)N1CCN(c2ccc(-c3ccn4c(-c5cccc(NC(=O)NCC(F)(F)F)c5)cnc4c3)cn2)CC1", "note": "[Example 145, 1-(3-{7-[6-(4-Acetyl-piperazin-1-yl)-pyridin-3-yl]-imidazo[1,2-a]pyridin-3-yl}-phenyl)-3-(2,2,2-trifluoro-ethyl)-urea]", "values": [
      {"measurement": "IC50", "value": 0.82, "unit": "µM"}
    ]},
    {"smiles": "COc1ncccc1-c1ccn2c(-c3cccc(NC(=O)NCC(F)(F)F)c3)cnc2c1", "note": "[Example 150, 1-{3-[7-(2-Methoxy-pyridin-3-yl)-imidazo[1,2-a]pyridin-3-yl]-phenyl}-3-(2,2,2-trifluoro-ethyl)-urea]", "values": [
      {"measurement": "IC50", "value": 1.7, "unit": "µM"}
    ]},
    {"smiles": "Cn1cncc1/C=C/c1ccn2c(-c3cccc(NC(=O)NCC(F)(F)F)c3)cnc2c1", "note": "[Example 155, 1-(3-{7-[(E)-2-(3-Methyl-3H-imidazol-4-yl)-vinyl]-imidazo[1,2-a]pyridin-3-yl}-phenyl)-3-(2,2,2-trifluoro-ethyl)-urea]", "values": [
      {"measurement": "inhibition at 3 µM", "setting": "[1]", "value": 28, "unit": "%"}
    ]},
    {"smiles": "Cc1nnc(-c2ccn3c(-c4cccc(NC(=O)NC5CC5)c4)cnc3c2)o1", "note": "[Example 157, 1-Cyclopropyl-3-{3-[7-(5-methyl-[1,3,4]oxadiazol-2-yl)-imidazo[1,2-a]pyridin-3-yl]-phenyl}-urea]", "values": [
      {"measurement": "inhibition at 10 µM", "setting": "[1]", "value": 38, "unit": "%"}
    ]},
    {"smiles": "O=C(Nc1cccc(-c2cnc3cc(-c4nncs4)ccn23)c1)NC1CC1", "note": "[Example 158, 1-Cyclopropyl-3-[3-(7-[1,3,4]thiadiazol-2-yl-imidazo[1,2-a]pyridin-3-yl)-phenyl]-urea]", "values": [
      {"measurement": "IC50", "value": 2.9, "unit": "µM"}
    ]},
    {"smiles": "Nc1cnc(-c2ccn3c(-c4cccc(NC(=O)NCC(F)(F)F)c4)cnc3c2)nc1Cl", "note": "[Example 170]", "values": [
      {"measurement": "inhibition at 3 µM", "setting": "[1]", "value": 14, "unit": "%"}
    ]},
    {"smiles": "Cc1cc(N)nc(-c2ccn3c(-c4cccc(NC(=O)NCC(F)(F)F)c4)cnc3c2)n1", "note": "[Example 171]", "values": [
      {"measurement": "inhibition at 1 µM", "setting": "[1]", "value": 16, "unit": "%"}
    ]},
    {"smiles": "Cc1nc(-c2ccn3c(-c4cccc(NC(=O)NCC(F)(F)F)c4)cnc3c2)ccc1F", "note": "[Example 172]", "values": [
      {"measurement": "IC50", "value": 3.4, "unit": "µM"}
    ]},
    {"smiles": "O=C(NCC(F)(F)F)Nc1cccc(-c2cnc3cc(-c4ncc(F)c(NC5CC5)n4)ccn23)c1", "note": "[Example 180]", "values": [
      {"measurement": "inhibition at 10 µM", "setting": "[1]", "value": 42, "unit": "%"}
    ]},
    {"smiles": "O=C(NCC(F)(F)F)Nc1cccc(-c2cnc3cc(-c4cc(=O)[nH]cn4)ccn23)c1", "note": "[Example 184]", "values": [
      {"measurement": "inhibition at 10 µM", "setting": "[1]", "value": 22, "unit": "%"}
    ]},
    {"smiles": "Cn1ccnc1/C=C/c1ccn2c(-c3cccc(NC(=O)NCC(F)(F)F)c3)cnc2c1", "note": "[Example 189]", "values": [
      {"measurement": "IC50", "value": 3.4, "unit": "µM"}
    ]},
    {"smiles": "O=C(NCC(F)(F)F)Nc1cccc(-c2cnc3cc(-c4nccc(=O)[nH]4)ccn23)c1", "note": "[Example 190]", "values": [
      {"measurement": "inhibition at 3 µM", "setting": "[1]", "value": 35, "unit": "%"}
    ]},
    {"smiles": "Cc1nc(-c2ccn3c(-c4cccc(NC(=O)NCC(F)(F)F)c4)cnc3c2)cc(N2CCN(CCO)CC2)n1", "note": "[Example 194]", "values": [
      {"measurement": "inhibition at 3 µM", "setting": "[1]", "value": 26, "unit": "%"}
    ]},
    {"smiles": "NC1CN(c2ccnc(-c3ccn4c(-c5cccc(NC(=O)NCC(F)(F)F)c5)cnc4c3)n2)C1", "note": "[Example 197]", "values": [
      {"measurement": "IC50", "value": 2.6, "unit": "µM"}
    ]},
    {"smiles": "O=C(NCC(F)(F)F)Nc1cccc(-c2cnc3cc(-c4ccnc(C(F)(F)F)n4)ccn23)c1", "note": "[Example 199]", "values": [
      {"measurement": "inhibition at 10 µM", "setting": "[1]", "value": 62, "unit": "%"}
    ]},
    {"smiles": "O=C(NCC(F)(F)F)Nc1cccc(-c2cnc3cc(-c4nccc(N5CC(O)C5)n4)ccn23)c1", "note": "[Example 203]", "values": [
      {"measurement": "inhibition at 10 µM", "setting": "[1]", "value": 30, "unit": "%"}
    ]},
    {"smiles": "COc1ccc(-c2ccn3c(-c4cccc(NC(=O)NCC(F)(F)F)c4)cnc3c2)nc1", "note": "[Example 204]", "values": [
      {"measurement": "IC50", "value": 0.82, "unit": "µM"}
    ]},
    {"smiles": "CSc1nc(N)cc(-c2ccn3c(-c4cccc(NC(=O)NCC(F)(F)F)c4)cnc3c2)n1", "note": "[Example 205]", "values": [
      {"measurement": "IC50", "value": 9.8, "unit": "µM"}
    ]},
    {"smiles": "O=C(NCC(F)(F)F)Nc1cccc(-c2cnc3cc(/C=C/CO)ccn23)c1", "note": "[Example 206]", "values": [
      {"measurement": "IC50", "value": 2.9, "unit": "µM"}
    ]},
    {"smiles": "NC(=O)c1ccc(-c2ccn3c(-c4cccc(NC(=O)NCC(F)(F)F)c4)cnc3c2)nc1", "note": "[Example 207]", "values": [
      {"measurement": "inhibition at 10 µM", "setting": "[1]", "value": 14, "unit": "%"}
    ]},
    {"smiles": "Cc1nc(N)cc(-c2ccn3c(-c4cccc(NC(=O)NCC(F)(F)F)c4)cnc3c2)n1", "note": "[Example 208]", "values": [
      {"measurement": "inhibition at 10 µM", "setting": "[1]", "value": 21, "unit": "%"}
    ]},
    {"smiles": "NC(=O)c1ccnc(-c2ccn3c(-c4cccc(NC(=O)NCC(F)(F)F)c4)cnc3c2)c1", "note": "[Example 209]", "values": [
      {"measurement": "inhibition at 10 µM", "setting": "[1]", "value": 0, "unit": "%"}
    ]},
    {"smiles": "O=C(NCC(F)(F)F)Nc1cccc(-c2cnc3cc(-c4nccc(-n5ccnc5)n4)ccn23)c1", "note": "[Example 213]", "values": [
      {"measurement": "inhibition at 10 µM", "setting": "[1]", "value": 22, "unit": "%"}
    ]},
    {"smiles": "CN(C)c1cc(-c2ccn3c(-c4cccc(NC(=O)NCC(F)(F)F)c4)cnc3c2)nc(C(F)(F)F)n1", "note": "[Example 214]", "values": [
      {"measurement": "IC50", "value": 2.6, "unit": "µM"}
    ]},
    {"smiles": "CN(C)S(=O)(=O)n1ccnc1-c1ccnc(-c2ccn3c(-c4cccc(NC(=O)NCC(F)(F)F)c4)cnc3c2)n1", "note": "[Example 216]", "values": [
      {"measurement": "inhibition at 10 µM", "setting": "[1]", "value": 28, "unit": "%"}
    ]},
    {"smiles": "O=C(NCC(F)(F)F)Nc1cccc(-c2cnc3cc(-c4cnn(C5CN(CCO)C5)c4)ccn23)c1", "note": "[Example 217]", "values": [
      {"measurement": "inhibition at 3 µM", "setting": "[1]", "value": 37, "unit": "%"}
    ]},
    {"smiles": "CNc1cc(-c2ccn3c(-c4cccc(NC(=O)NCC(F)(F)F)c4)cnc3c2)nc(SC)n1", "note": "[Example 218]", "values": [
      {"measurement": "inhibition at 10 µM", "setting": "[1]", "value": 30, "unit": "%"}
    ]},
    {"smiles": "Cc1nc2cc(-c3ccn4c(-c5cccc(NC(=O)NCC(F)(F)F)c5)cnc4c3)ccc2s1", "note": "[Example 219]", "values": [
      {"measurement": "IC50", "value": 3.5, "unit": "µM"}
    ]},
    {"smiles": "CNC(=O)c1ccnc(-c2ccn3c(-c4cccc(NC(=O)NCC(F)(F)F)c4)cnc3c2)n1", "note": "[Example 220]", "values": [
      {"measurement": "IC50", "value": 1.5, "unit": "µM"}
    ]},
    {"smiles": "O=C(NCC(F)(F)F)Nc1cccc(-c2cnc3cc(-c4nccc(C(=O)N5CCOCC5)n4)ccn23)c1", "note": "[Example 221]", "values": [
      {"measurement": "inhibition at 3 µM", "setting": "[1]", "value": 21, "unit": "%"}
    ]},
    {"smiles": "CNC(=O)c1cc(C)nc(-c2ccn3c(-c4cccc(NC(=O)NCC(F)(F)F)c4)cnc3c2)n1", "note": "[Example 222]", "values": [
      {"measurement": "IC50", "value": 2.3, "unit": "µM"}
    ]},
    {"smiles": "Cc1cn2nc(-c3ccn4c(-c5cccc(NC(=O)NCC(F)(F)F)c5)cnc4c3)sc2n1", "note": "[Example 225]", "values": [
      {"measurement": "inhibition at 10 µM", "setting": "[1]", "value": 0, "unit": "%"}
    ]},
    {"smiles": "Cc1cc(-c2ccn3c(-c4cccc(NC(=O)NCC(F)(F)F)c4)cnc3c2)nc(C(C)C)n1", "note": "[Example 226]", "values": [
      {"measurement": "inhibition at 10 µM", "setting": "[1]", "value": 40, "unit": "%"}
    ]},
    {"smiles": "O=C(NCC(F)(F)F)Nc1cccc(-c2cnc3cc(-c4cc(C(F)(F)F)ncn4)ccn23)c1", "note": "[Example 227]", "values": [
      {"measurement": "IC50", "value": 3.6, "unit": "µM"}
    ]},
    {"smiles": "CCNC(=O)Nc1cccc(-c2cnc3cc(-c4ccc(F)c(C)n4)ccn23)c1", "note": "[Example 228]", "values": [
      {"measurement": "IC50", "value": 5.1, "unit": "µM"}
    ]},
    {"smiles": "Nc1nc(-c2ccn3c(-c4cccc(NC(=O)NCC(F)(F)F)c4)cnc3c2)ccc1C(F)(F)F", "note": "[Example 231]", "values": [
      {"measurement": "inhibition at 10 µM", "setting": "[1]", "value": 23, "unit": "%"}
    ]},
    {"smiles": "Nc1cc(-c2ccn3c(-c4cccc(NC(=O)NCC(F)(F)F)c4)cnc3c2)ncc1C(F)(F)F", "note": "[Example 234]", "values": [
      {"measurement": "IC50", "value": 6.4, "unit": "µM"}
    ]},
    {"smiles": "CCNC(=O)Nc1cccc(-c2cnc3cc(-c4ncc(C(F)(F)F)c(N)n4)ccn23)c1", "note": "[Example 235]", "values": [
      {"measurement": "IC50", "value": 1.2, "unit": "µM"}
    ]},
    {"smiles": "Cc1cc(-c2ccn3c(-c4cccc(NC(=O)NCC(F)(F)F)c4)cnc3c2)nc(C(F)(F)F)n1", "note": "[Example 237]", "values": [
      {"measurement": "IC50", "value": 0.12, "unit": "µM"}
    ]}
  ]
}
